Measured values reported in patent US4711958A, “Morpholine containing amino acid derivatives” (priority 1986, dated 1987).

Legend:
renin [1] = target: T1, renin (Homo sapiens, UniProt P00797); experiment: Inhibitory effect on human renin-sheep renin substrate reaction system in vitro; assay type: biochemical; details: pH 7.4, 37° C., 15 minutes, read-out: IC50 (molar concentration producing a 50% inhibition)
T1 sequence (P00797 67-406): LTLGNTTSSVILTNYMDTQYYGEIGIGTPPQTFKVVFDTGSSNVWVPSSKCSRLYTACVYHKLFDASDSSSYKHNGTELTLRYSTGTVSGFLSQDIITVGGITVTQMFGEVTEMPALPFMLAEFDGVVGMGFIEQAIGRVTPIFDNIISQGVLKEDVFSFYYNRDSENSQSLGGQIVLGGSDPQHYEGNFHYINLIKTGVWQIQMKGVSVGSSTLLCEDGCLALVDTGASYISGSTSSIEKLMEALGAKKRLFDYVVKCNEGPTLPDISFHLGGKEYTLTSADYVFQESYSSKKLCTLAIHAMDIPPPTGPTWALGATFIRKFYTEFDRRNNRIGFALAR
Protocol: Inhibitory effect on human renin-sheep renin substrate reaction system in vitro
The mixture was incubated for 15 minutes on a water bath at 37° C., and the reaction mixture was allowed to stand for 5 minutes on a water bath at 100° C. to stop the reaction. After cooling, 200 μl of the solution was taken up and the amount of angiotensin I produced by the addition of renin was determined by radioimmunoassay using renin riabead kit (DAINABOT).
The inhibitory effect was calculated by the following equation.
As a control, the same procedure as above was carried out by using 50 μl of dimethyl sulfoxide alone in place of the 50 μl of dimethyl sulfoxide solution containing an amino acid compound of the present invention. [formula]

renin [2] = target: T1, renin; experiment: Renin inhibitory effect in a human high renin plasma; assay type: biochemical; design: 500 μl of human high renin plasma; from tissue; host or cells: human high renin plasma; details: pH 7.0, 37° C., 60 minutes, read-out: IC50 (molar concentration producing a 50% inhibition)
Protocol: Renin inhibitory effect in a human high renin plasma
A mixture of 350 μl of a 0.5 M phosphate buffer (pH 7.0) containing 14 mM EDTA.2Na and a 0.3% neomycin sulfate, 50 μl of a 20 mM L-phenylalanyl-L-alanyl-L-proline as an angiotensin converting enzyme inhibitor and 100 μl of dimethyl sulfoxide solution containing an amino acid derivative of the present invention was added to 500 μl of human high renin plasma. Two hundred μl of the mixture was placed on an ice bath, at 4° C., and remaining mixture (800 μl ) was incubated for 60 minutes at 37° C. on a water bath. Two hundred μl of the incubated remaining mixture was chilled immediately on an ice bath, and the amount (A) of angiotensin I produced was determined by radioimmunoassay using renin riabead kit (DAINABOT).
The amount (B) of angiotensin I in the mixture placed on an ice bath at 4° C. was also determined by radioimmunoassay.
As a control, the same procedure as above was carried out by using 100 μl of dimethyl sulfoxide alone in place of 100 μl of dimethyl sulfoxide solution containing an amino acid compound of the present invention.
The net amount was estimated as the difference between A and B.
The inhibitory effect was calculated by the following equation. [formula]

[3] = Hypotensive effect in marmoset (high renin state, oral); assay type: in vivo, common marmoset; details: conscious male marmoset, oral 30 mg/kg, tail cuff, Control 89.3
Protocol: Hypotensive effect in marmoset
The experiment was carried out by using common marmoset as described in K. G. Hofbauer et al., Clinical and Experimental Hypertension, Vol. A5, Nos. 7 & 8 (1983), pages 1237-1247.
Furosemide was administered orally three times to common marmoset at 15 mg per kilogram per day every other day to create a high renin state. Blood pressure of conscious marmoset was measured on the third day after the last furosemide dose.
A conscious male marmoset weighing 460 g was placed into small restraining chair. Blood pressure was measured on the tail cuff method using pretismograph. Compound C was dissolved in dilute hydrochloric acid, and administered orally at 30 mg/kg by using a catheter.

plasma renin = experiment: Renin inhibitory effect in plasma on common marmoset (high renin state, oral); assay type: in vivo; details: oral 30 mg/kg
Protocol: Renin inhibitory effect in plasma on common marmoset
The experiment was carried out by using common marmoset as described in K. G. Hofbauer et al., Clinical and Experimental hypertension, Vol. A5, Nos. 7 & 8 (1983), pages 1237-1247.
Furosemide was administered orally three times to common marmoset having a lower salt diet at 15 mg per Kilogram per day every other day to create a high renin state. The experiment was carried out on the third day after the last furosemide dose.
Conscious female and male marmosets weighing 335 to 375 g were placed into small restraining chair, and by using a catheter into the femoral artery, blood collecting was carried out at intervals of 20, 40, 60, 120, 180 and 300 minutes.
Collected blood samples were centrifuged at 1200 g for 15 minutes at 4° C. Two hundred μl of the plasma was taken up and incubated for 60 minutes at 37° C., and the plasma renin activity was measured by radioimmunoassay using renin riabead kit (DAINABOT).
Compound A of this invention was dissolved in dilute hydrochloric acid, and administered orally at single dose of 30 mg/kg using catheter.

SMILES	IC50 (renin [1])	IC50 (renin [2])	other results
CC(C)OC(=O)[C@H](O)[C@H](CC1CCCCC1)NC(=O)[C@H](Cc1c[nH]cn1)NC(=O)C(CC(=O)N1CCOCC1)Cc1cccc2ccccc12 (stereo partly drawn) [Compound D, (2R, 3S)-3-{N-[2-(1-Naphthylmethyl)-3-(morpholinocarbonyl)propionyl]-L-histidyl}amino-4-cyclohexyl-2-hydroxybutyric acid isopropyl ester]	2.4 nM	4.7 nM	–
O=C(N[C@@H](Cc1c[nH]cn1)C(=O)N[C@@H](CC1CCCCC1)C(O)C(=O)OC1CCCCC1)C(CC(=O)N1CCOCC1)Cc1cccc2ccccc12 (mixture of isomers) [Compound E, (2RS, 3S)-3-{N-[2-(1-Naphthylmethyl)-3-(morpholinocarbonyl)propionyl]-L-histidyl}amino-4-cyclohexyl-2-hydroxybutyric acid cyclohexyl ester]	6.6 nM	30 nM	–
O=C(N[C@@H](Cc1c[nH]cn1)C(=O)N[C@@H](CC1CCCCC1)C(O)C(=O)OC1CCCC1)C(CC(=O)N1CCOCC1)Cc1cccc2ccccc12 (mixture of isomers) [Compound C, (2RS, 3S)-3-{N-[2-(1-Naphthylmethyl)-3-(morpholinocarbonyl)propionyl]-L-histidyl)amino-4-cyclohexyl-2-hydroxybutyric acid cyclopentyl ester]	2.5 nM	6.8 nM	Blood pressure ([3]; 0.5 hours after administration): 78.0 mmHg; Blood pressure ([3]; 1 hour after administration): 73.3 mmHg; Blood pressure ([3]; 2 hours after administration): 66.0 mmHg; Blood pressure ([3]; 3 hours after administration): 71.0 mmHg; Blood pressure ([3]; 5 hours after administration): 71.8 mmHg; Blood pressure ([3]; 7 hours after administration): 71.7 mmHg
CC(C)CNC(=O)C(O)[C@H](CC1CCCCC1)NC(=O)[C@H](Cc1c[nH]cn1)NC(=O)C(CC(=O)N1CCOCC1)Cc1cccc2ccccc12 (mixture of isomers) [Compound B, (2RS, 3S)-3-{N-[2-(1-Naphthylmethyl)-3-(morpholinocarbonyl)propionyl]-L-histidyl}amino-4-cyclohexyl-2-hydroxy-N-isobutylbutyramide]	290 nM	260 nM	–
CC(C)OC(=O)C(O)[C@H](CC1CCCCC1)NC(=O)[C@H](Cc1c[nH]cn1)NC(=O)C(CC(=O)N1CCOCC1)Cc1cccc2ccccc12 (mixture of isomers) [Compound A, (2RS, 3S)-3-{N-[2-(1-Naphthylmethyl)-3-(morpholinocarbonyl)propionyl]-L-histidyl)amino-4-cyclohexyl-2-hydroxybutyric acid isopropyl ester]	6.5 nM	10 nM	Inhibition percent of plasma renin activity (plasma renin; 20 minutes after administration, 3 animals): 68.2%; Inhibition percent of plasma renin activity (plasma renin; 40 minutes after administration, 3 animals): 88.1%; Inhibition percent of plasma renin activity (plasma renin; 60 minutes after administration, 3 animals): 87.1%; Inhibition percent of plasma renin activity (plasma renin; 120 minutes after administration, 3 animals): 88.8%; Inhibition percent of plasma renin activity (plasma renin; 180 minutes after administration, 3 animals): 79.6%; Inhibition percent of plasma renin activity (plasma renin; 300 minutes after administration, 2 animals): 53.4%
O=C(N[C@@H](Cc1c[nH]cn1)C(=O)N[C@@H](CC1CCCCC1)C(O)C(=O)N1CCOCC1)C(CC(=O)N1CCOCC1)Cc1cccc2ccccc12 (mixture of isomers) [Compound F, 4-[(2RS, 3S)-3-{N-[2-(1-Naphthylmethyl)-3-(morpholinocarbonyl)propionyl]-L-histidyl}amino-4-cyclohexyl-2-hydroxybutyryl]morpholine]	370 nM	130 nM	–
O=C(N[C@@H](Cc1c[nH]cn1)C(=O)N[C@@H](CC1CCCCC1)C(O)C(=O)OC(CF)CF)C(CC(=O)N1CCOCC1)Cc1cccc2ccccc12 (mixture of isomers) [Compound G, (2RS, 3S)-3-{N-[2-(1-Naphthylmethyl)-3-(morpholinocarbonyl)propionyl]-L-histidyl}amino-4-cyclohexyl-2-hydroxybutyric acid 1,3-difluoro-2-propyl ester]	2.9 nM	4.1 nM	–
